Ten compounds from BindingDB's records for doi:10.7270/Q2NP22V6 (NMMLSC, 2007) can be followed below.

Each structure is given as a SMILES string. pIC50: −log10 of the molar value.

The target of the first assay is T1, N-formyl peptide receptor 2 (Homo sapiens, UniProt P25090).
T1 sequence (P25090 whole entry): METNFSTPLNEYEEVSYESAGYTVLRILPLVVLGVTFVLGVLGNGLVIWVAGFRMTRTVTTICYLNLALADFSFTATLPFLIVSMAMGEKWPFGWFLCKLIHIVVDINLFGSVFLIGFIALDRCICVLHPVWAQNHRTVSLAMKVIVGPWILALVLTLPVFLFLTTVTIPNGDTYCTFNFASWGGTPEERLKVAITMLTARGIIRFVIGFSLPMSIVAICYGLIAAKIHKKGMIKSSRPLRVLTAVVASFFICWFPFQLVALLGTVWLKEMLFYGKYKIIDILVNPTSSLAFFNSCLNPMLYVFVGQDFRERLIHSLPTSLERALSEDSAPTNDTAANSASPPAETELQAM
Kind of assay: human FPR2 ligand displacement potency – cell-based, flow cytometry, Ki from IC50, dose response (AID 766).
Details: not given
`COc1ccc(-c2cc(C(F)(F)F)nc(N3CCN(c4ccccc4)CC3)n2)cc1OC` [4-(3,4-dimethoxyphenyl)-2-(4-phenyl-1-piperazinyl)-6-(trifluoromethyl)pyrimidine] showed a pIC50 of less than 4.30.
On the same count and under the same terms, the value for `CCOC(=O)N1CCN(c2nc(-c3ccc(OC)c(OC)c3)cc(C(F)(F)F)n2)CC1` [4-[4-(3,4-dimethoxyphenyl)-6-(trifluoromethyl)-2-pyrimidinyl]-1-piperazinecarboxylic acid ethyl ester] was less than 4.30.
Still for that read-out and setting: in the case of `COc1ccc(-c2cn3cccnc3n2)cc1NC(=O)C1CC1` [MLS000045944] it was 5.17.
On the same count and under the same terms, in the case of `CCC(=O)Nc1cc(-c2cn3cccnc3n2)ccc1OC` [N-(5-imidazo[1,2-a]pyrimidin-2-yl-2-methoxy-phenyl)propanamide] it was 4.97; in that of `O=C(N1CCN(c2nc(-c3ccccc3)c3ccccc3n2)CC1)C(F)(F)F` [2,2,2-trifluoro-1-[4-(4-phenyl-2-quinazolinyl)-1-piperazinyl]ethanone], less than 4.24; in that of `COc1ccc(-c2cn3cccnc3n2)cc1NC(=O)C(C)C` [N-(5-imidazo[1,2-a]pyrimidin-2-yl-2-methoxy-phenyl)-2-methyl-propanamide], 5.44.
In turn, `COc1ccc(CC(=O)Nc2cc(-c3cn4cccnc4n3)ccc2OC)cc1` [N-(5-imidazo[1,2-a]pyrimidin-2-yl-2-methoxy-phenyl)-2-(4-methoxyphenyl)acetamide] showed a pIC50 of 5.00.
Same read-out and setting: in the case of `COc1ccc(-c2cn3cccnc3n2)cc1NC(=O)C1CCCC1` [MLS000045945] it was less than 4.18.
The same measure, in the same setting: the value for `COc1ccc(-c2cc(C(F)(F)F)nc(N3CCN(C(c4ccccc4)c4ccccc4)CC3)n2)cc1OC` [2-(4-benzhydrylpiperazin-1-yl)-4-(3,4-dimethoxyphenyl)-6-(trifluoromethyl)pyrimidine] was less than 4.38.

Staying with this assay, now noted: inactive by the depositor's call.
The compound `COc1ccc(-c2cc(C(F)(F)F)nc(N3CCN(Cc4ccccc4)CC3)n2)cc1OC` [2-(4-benzylpiperazin-1-yl)-4-(3,4-dimethoxyphenyl)-6-(trifluoromethyl)pyrimidine] gave a pIC50 of 4.78.
